Laboratory results reported in PMC10991380, “Cloning, functional expression, and pharmacological characterization of inwardly rectifying potassium channels (Kir) from Apis mellifera” (Scientific Reports, 2024).

Experiments:
Assay in all cases: two-electrode voltage clamp, Xenopus oocytes
Format in all cases: cell-based, Apis mellifera
Conditions in all cases: 96 mM KCl Ringer, pH 7.6; holding potential -80 mV; VU041 in DMSO
AmKir2.3 = test system: T1, AmKir2.3
T1 construct: homotetramer; N-terminal tail 31 residues shorter than AmKir2.2

AmKir2.2 = test system: T2, AmKir2.2
T2 construct: homotetramer; N-terminal tail 31 residues longer than AmKir2.3

AmKir1.1 = test system: T3, AmKir1.1
T3 construct: homotetramer; longer N-terminal and shorter C-terminal tail than AmKir2

O=C(Cn1nc(C(F)(F)F)c2c1CCCC2)N1CCCc2ccccc21 [VU041]
% inhibition at 10^-5 M (AmKir2.3): 24.04 ± 1.92% | % inhibition at 10^-4 M (AmKir2.2): 45.65 ± 5.01% | % inhibition at 10^-4 M (AmKir1.1): 48.94 ± 3.79%
